Assay results: publication PMC3184957, “Improving a Natural CaMKII Inhibitor by Random and Rational Design” (PLoS ONE, 2011)
pIC50: −log10 of the molar value. “Also recorded” adds a separate entry of the source. Read-outs that look alike come from different tables or passages of the source. Ends that are not written are not given here.

Tests used:
CaMKIIα = biological target: T1, CaMKIIα (Rattus norvegicus, UniProt P11275); assay: CaMKII activity assay, phosphorylation of syntide 2; type: biochemical; conditions: for fold reduction of potency of CaMKII inhibition compared to CN19 (Ala scan): Ala substitution in CN19, Fig. 2; for IC50: class estimated from syntide 2 phosphorylation at 0.3 and 0.1 µM peptide, Ala scan peptides not N-acetylated / C-amidated, read-out: IC50 [μM] (Ala scan of CN19, Fig. 2); for effect of individual mutation of CN19 on potency of CaMKII inhibition: compared with CN19, some substitutions tested in CN19a2 or a3; for effect of rational mutation in CN19a2v / CN19o on CaMKII inhibition (Fig. 6): compared with CN19a2v or CN19o, Fig. 6C CaMKII 0.5 nM; for CaMKII activity remaining at 5 nM peptide: 5 nM peptide (Figs. S6, 7B); for fold greater potency of CaMKII inhibition compared to CN19: ratio of IC50 values
T1 construct: made in house; host or cells: baculovirus/Sf9 (CaMKII); bacteria (CaM)
Text: CaM and CaMKII was purified after bacterial or baculovirus/Sf9 cell expression as described, [47]. Other kinases were purchased (PKA and PKC from PhosphoSolutions; others from SignalChem). […] All CN peptides were N-terminally acetylated and C-terminally amidated, except for the peptides used for the initial Ala scan. Substrate peptides were purchase from Genescript or as indicated. Chemicals were obtained from Sigma and Perkin Elmer. […] For all kinase activity assays, reactions were stopped by spotting onto P81 cation exchange chromatography paper (Whatman) squares. After extensive washes in water, phosphorylation of the substrate peptide bound to the P81 paper was measured by the Cherenkov method.

CaMKII = biological target: T2, CaMKII (Rattus norvegicus, UniProt P11275); assay: CaMKII activity assay, T-site binding substrate AC3; type: biochemical; conditions: S- and T-site binding substrate AC3, competitive inhibition (Fig. S1); read-out: IC50 for inhibition of CaMKII activity towards AC3
T2 construct: made in house; host or cells: baculovirus/Sf9 (CaMKII); bacteria (CaM)
Description: Standard reactions (1 min at 30°C) were started by adding CaMKIIα (2.5 nM subunits, unless stated otherwise) to a mix of 50 mM PIPES pH 7.2, 0.1% BSA, 1 µM CaM, 1 mM CaCl2, 10 mM MgCl2, 100 µM [γ-^32P]ATP (∼1 Ci/mmole), 75 µM substrate peptide (syntide 2, or as indicated), and inhibitor peptide as indicated. Reactions with 0.1 nM CaMKII were done for 10 min.
(§1) For all kinase activity assays, reactions were stopped by spotting onto P81 cation exchange chromatography paper (Whatman) squares. After extensive washes in water, phosphorylation of the substrate peptide bound to the P81 paper was measured by the Cherenkov method.
Systematic further truncation of CN21 defined the minimal inhibitory region, CN19 (Fig. 1B). […] Thus, the peptide C-terminally truncated by 2 amino acids (now termed CN19) contains the minimal inhibitory region with full inhibitory potency. Phosphorylation of syntide 2 by CaMKII was inhibited by CN21, CN20 and CN19 with an IC50 of ∼100 nM (Fig. 1C). Syntide 2 is a “regular” S-site binding CaMKII substrate, and CN peptides inhibit its phosphorylation in a non-competitive manner. We additionally tested AC3, an S- and T-site binding substrate, as this T-site binding results in competitive inhibition by CN peptides, which also bind to the T-site. […]

CaMKIα = biological target: T3, CaMKIα (Mus musculus, UniProt Q91YS8); assay: CaMKI activity assay; type: biochemical; conditions: for effect on CaMKI activity at 5 µM peptide: 5 µM peptide (Figs. 5, 7B); for pIC50: 2.5 nM CaMKIα, 3 min, syntide 2, curve fit with Hill coefficient set as 1 (Fig. S5), read-out: IC50 of CaMKI inhibition
T3 construct: purchased SignalChem
Description: as §1
(§2) Reactions were performed essentially as described for CaMKII. However, for AMPK, 100 µM AMP was added to the reaction. For AMPK, PKC, and PKA, the reaction mix contained 1 mM EGTA instead of CaCl2 and CaM. Prior to activity assays, CaMKI (12.5 nM) and CaMKIV (80 nM) were phosphorylated by CaMKKα (1.25–4 nM) for 5 min at 30°C in Ca^2+/CaM containing buffer. Additionally, kinase amount, reaction time, and the substrate (obtained from different companies as indicated) was varied as follows: 2.5 nM CaMKIα, 3 min, syntide 2 (Genescript); 5 nM CaMKIV, 10 min, CaMK2g 345–358 peptide (Anaspec); 2.5 nM DAPK1 1–363, 3 min, MLC-derived peptide (Anaspec); 5 nM AMPK-α2β1γ1, 10 min, SAMStide (SignalChem); 5 nM PKA, 10 min, Kemptide (Genescript); 2 nM PKC, 10 min, MARCKS peptide (Anaspec). PKA and PKC were purified from bovine heart or rat brain, respectively. […] Other kinases were recombinant protein from mouse (CaMKI) or human (CaMKK, CaMKIV, DAPK1, AMPK), of the isoform and/or subunit composition indicated above.

CaMKIV = biological target: T4, CaMKIV (Homo sapiens, UniProt Q16566); assay: CaMKIV activity assay; type: biochemical; conditions: 5 µM peptide; 5 nM CaMKIV, 10 min, CaMK2g 345–358 peptide
T4 construct: purchased SignalChem
Description: as §1, §2

AMPK-α2β1γ1 = biological target: T5, AMPK-α2β1γ1 (Homo sapiens, UniProt P54619+P54646+Q9Y478); assay: AMPK activity assay; type: biochemical; conditions: 5 µM peptide; 5 nM AMPK, 10 min, SAMStide, 100 µM AMP
T5 construct: purchased SignalChem
T5 sequence (P54646 whole entry): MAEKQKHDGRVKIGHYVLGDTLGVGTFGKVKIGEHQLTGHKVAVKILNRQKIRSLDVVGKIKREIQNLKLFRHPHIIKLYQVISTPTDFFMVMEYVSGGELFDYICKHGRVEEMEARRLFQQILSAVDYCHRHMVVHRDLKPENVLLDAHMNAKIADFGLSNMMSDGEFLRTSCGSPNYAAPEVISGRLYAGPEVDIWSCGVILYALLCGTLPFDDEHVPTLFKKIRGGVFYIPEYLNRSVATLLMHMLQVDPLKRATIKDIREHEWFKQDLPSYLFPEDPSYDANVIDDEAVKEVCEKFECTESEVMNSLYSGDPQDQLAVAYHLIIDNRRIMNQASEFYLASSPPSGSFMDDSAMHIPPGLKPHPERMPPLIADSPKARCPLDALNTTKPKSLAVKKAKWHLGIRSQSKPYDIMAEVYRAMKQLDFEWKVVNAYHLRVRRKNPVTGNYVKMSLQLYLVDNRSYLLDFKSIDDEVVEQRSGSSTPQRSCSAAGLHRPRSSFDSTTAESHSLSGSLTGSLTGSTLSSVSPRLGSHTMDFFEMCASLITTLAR
T5 sequence (Q9Y478 whole entry partner): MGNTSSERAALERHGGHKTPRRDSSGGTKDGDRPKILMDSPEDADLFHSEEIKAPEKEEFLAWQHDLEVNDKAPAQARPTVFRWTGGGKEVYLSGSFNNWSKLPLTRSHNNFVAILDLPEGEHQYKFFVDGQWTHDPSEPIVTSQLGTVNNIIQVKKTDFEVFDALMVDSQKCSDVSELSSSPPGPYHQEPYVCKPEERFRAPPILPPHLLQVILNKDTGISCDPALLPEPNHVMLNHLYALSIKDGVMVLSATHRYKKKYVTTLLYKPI
T5 sequence (P54619 whole entry partner): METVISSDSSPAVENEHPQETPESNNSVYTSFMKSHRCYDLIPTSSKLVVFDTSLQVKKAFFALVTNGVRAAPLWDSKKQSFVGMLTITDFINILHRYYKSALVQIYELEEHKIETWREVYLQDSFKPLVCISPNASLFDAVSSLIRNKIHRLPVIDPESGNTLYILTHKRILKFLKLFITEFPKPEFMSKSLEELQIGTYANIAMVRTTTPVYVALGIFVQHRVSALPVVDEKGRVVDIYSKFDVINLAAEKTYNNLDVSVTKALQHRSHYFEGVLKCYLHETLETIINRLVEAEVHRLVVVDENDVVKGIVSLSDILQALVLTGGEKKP
Description: as §1, §2

DAPK1 1–363 = biological target: T6, DAPK1 1–363 (Homo sapiens, UniProt P53355); assay: DAPK1 activity assay; type: biochemical; conditions: 5 µM peptide; 2.5 nM DAPK1 1–363, 3 min, MLC-derived peptide
T6 construct: 2.5 nM DAPK1 1–363, 3 min, MLC-derived peptide (Anaspec); purchased SignalChem
Description: as §1, §2

PKA = biological target: T7, PKA (Bos taurus, UniProt P00517); assay: PKA activity assay; type: biochemical, bovine; conditions: 5 µM peptide; 5 nM PKA catalytic subunits, 10 min, Kemptide
T7 construct: PKA and PKC were purified from bovine heart or rat brain, respectively; purchased PhosphoSolutions; host or cells: bovine heart
Description: as §1, §2

PKC = PKC activity assay; type: biochemical, rat; conditions: 5 µM peptide; 2 nM PKC (PKM fragment), 10 min, MARCKS peptide
Description: as §1, §2

[1] = in vitro [γ-32P]ATP assay, substrate syntide 2, 30°C, approximate values (Figs. 1C, 4B, 6), read-out: IC50 of inhibition of CaMKII phosphorylation of syntide 2
[2] = values compared from Figs. 1, 4 and 7, read-out: CaMKII IC50 (Fig. S5 table and legend)

## KRPPKLGQIGRAKRVVIED [S12A]
CaMKIIα
  fold reduction of potency of CaMKII inhibition compared to CN19 (Ala scan): more than 3 fold
  IC50: > 0.3 µM

## KRPAKLGQIGRSKRVVIED [P4A]
CaMKIIα
  IC50: > 0.3 µM

## KRAPKLGQIGRSKRVVIED [P3A]
CaMKIIα
  IC50: < 0.1 µM
CaMKIIα; syntide 2
  effect of individual mutation of CN19 on potency of CaMKII inhibition: significantly increased potency

## Ac-KRPPKLGQIGRSKRVVIEDDR-NH2 [CN21, reference compound]
CaMKII
  pIC50: ~6.00
CaMKIIα
  pIC50: ~7.00
CaMKIα
  effect on CaMKI activity at 5 µM peptide: did not significantly inhibit

## H-KRPPKLGQIGRSKRVAIED-OH [V16A]
CaMKIIα
  IC50: ~0.1 µM

## KRPPKLGQIGRSKAVVIED [R14A]
CaMKIIα
  IC50: < 0.1 µM
CaMKIIα; syntide 2
  effect of individual mutation of CN19 on potency of CaMKII inhibition: significantly increased potency

## KRPPKLGQIGRSKRAVIED [V15A]
CaMKIIα
  IC50: < 0.3 µM

## KRPPKLGQIGRSKRVVAED [I17A]
CaMKIIα
  IC50: < 0.3 µM

## KRPPKLGQIGRSKRVVIEA [D19A]
CaMKIIα
  IC50: < 0.3 µM

## KRPPKLGQIGRSKRVVIAD [E18A]
CaMKIIα
  IC50: < 0.3 µM

## KRPPKLGQIGASKRVVIED [R11A]
CaMKIIα
  fold reduction of potency of CaMKII inhibition compared to CN19 (Ala scan): more than 3 fold
  IC50: > 0.3 µM

## Ac-KRAPKLGQIGRVKAVDIED-NH2 [CN19a2v V16D]
CaMKIIα
  effect of rational mutation in CN19a2v / CN19o on CaMKII inhibition (Fig. 6): significantly increased potency
CaMKIIα; [1]
  pIC50: ~9.00

## H-KRPPKLGAIGRSKRVVIED-OH [Q8A]
CaMKIIα
  IC50: ~0.1 µM

## KRPPKLGQIGRSARVVIED [K13A]
CaMKIIα
  IC50: < 0.1 µM
CaMKIIα; syntide 2
  effect of individual mutation of CN19 on potency of CaMKII inhibition: significantly increased potency

## Ac-KRPPKLGQIGRSKRVVIEDD-NH2 [CN20]
CaMKIIα; CaMKII 20 nM, 40 µM syntide 2
  effect of CN21 truncation on CaMKII inhibition (Fig. 1B): not different between each other
CaMKIIα; [1]
  pIC50: ~7.00

## KRPPKLGQIARSKRVVIED [G10A]
CaMKIIα
  IC50: > 0.3 µM

## KAPPKLGQIGRSKRVVIED [R2A]
CaMKIIα
  IC50: < 0.3 µM

## KRPPKLAQIGRSKRVVIED [G7A]
CaMKIIα
  IC50: < 0.3 µM

## KRPPKLGQAGRSKRVVIED [I9A]
CaMKIIα
  IC50: > 0.3 µM

## KRPPALGQIGRSKRVVIED [K5A]
CaMKIIα
  IC50: < 0.3 µM

## Ac-KRAPKLGQIGRVKAVVIED-NH2 [CN19a2v]
CaMKIIα
  CaMKII activity remaining at 5 nM peptide: ~75%
  fold greater potency of CaMKII inhibition compared to CN19: ~5 fold
CaMKIIα; 20 nM peptide, syntide 2
  potency of CN19 combination mutants (Fig. 4): without loss of its potency; also recorded: significantly stronger compared to CN19a3 with additional S12V mutation (CN19a3v)
CaMKIIα; compared with CN19a2
  effect of further mutation in CN19a2 on CaMKII inhibition (Figs. S3B, S4B): retained potency of CaMKII inhibition
CaMKIIα; [2]
  pIC50: 7.70
CaMKIα
  fold greater potency of CaMKI inhibition compared to CN19: ~2 fold
  fold increase of selectivity for CaMKII vs CaMKI compared to CN19: ~2.5 fold
  pIC50: 4.74
  effect on CaMKI activity at 5 µM peptide: did not inhibit
CaMKIα; 20 µM peptide, remaining activity (Fig. 5B)
  CaMKI activity at 20 µM peptide: ~60%
CaMKIα; ratio CaMKI IC50 / CaMKII IC50
  selectivity for CaMKII vs CaMKI: ~900 fold

## ARPPKLGQIGRSKRVVIED [K1A]
CaMKIIα
  IC50: < 0.3 µM

## Ac-KRAPKLGQIGRQKAVDIED-NH2 [CN19o]
CaMKIV
  effect on CaMKIV activity at 5 µM: did not significantly affect
AMPK-α2β1γ1
  effect on AMPK activity at 5 µM: did not significantly affect
DAPK1 1–363
  effect on DAPK1 activity at 5 µM: did not significantly affect
CaMKIIα
  CaMKII activity remaining at 5 nM peptide: blocked CaMKII activity almost completely
  effect of rational mutation in CN19a2v / CN19o on CaMKII inhibition (Fig. 6): increased potency even further
  fold greater potency of CaMKII inhibition compared to CN19: > 250 fold
CaMKIIα; CaMKII reduced to 0.1 nM, 10 min reaction, IC50 dependent on CaMKII concentration (tight binding inhibitor), read-out: IC50 for CaMKII inhibition by CN19o (Fig. 7A)
  pIC50: > 9.40
CaMKIIα; [2]
  pIC50: 9.40
PKA
  effect on PKA activity at 5 µM: did not significantly affect
PKC
  effect on PKC activity at 5 µM: did not significantly affect
CaMKIα
  fold increase of selectivity for CaMKII vs CaMKI compared to CN19: > 250 fold
  pIC50: 4.42
  effect on CaMKI activity at 5 µM peptide: did not significantly affect
CaMKIα; ratio CaMKI IC50 / CaMKII IC50
  CaMKII selectivity (Fig. S5 table): > 100,000 x
  selectivity for CaMKII vs CaMKI: ~100,000 fold

## Ac-KRAPKLGQIGRQKAVVIED-NH2 [CN19a2v V12Q]
CaMKIIα
  effect of rational mutation in CN19a2v / CN19o on CaMKII inhibition (Fig. 6): significantly increased potency
CaMKIIα; [1]
  pIC50: ~9.00

## KRPPKAGQIGRSKRVVIED [L6A]
CaMKIIα
  IC50: > 0.3 µM

## Ac-KRPPKLGQIGRSKRVVIED-NH2 [CN19]
CaMKII
  pIC50: ~6.00
CaMKIIα; [2]
  pIC50: 7.00
CaMKIα
  pIC50: 4.44
  effect on CaMKI activity at 5 µM peptide: did not significantly inhibit
CaMKIα; ratio CaMKI IC50 / CaMKII IC50
  selectivity for CaMKII vs CaMKI: ~360 fold
